This test addresses Carbonic anhydrase 13 (Homo sapiens, UniProt Q8N1Q1).

Sequence of Carbonic anhydrase 13 (Q8N1Q1 whole entry): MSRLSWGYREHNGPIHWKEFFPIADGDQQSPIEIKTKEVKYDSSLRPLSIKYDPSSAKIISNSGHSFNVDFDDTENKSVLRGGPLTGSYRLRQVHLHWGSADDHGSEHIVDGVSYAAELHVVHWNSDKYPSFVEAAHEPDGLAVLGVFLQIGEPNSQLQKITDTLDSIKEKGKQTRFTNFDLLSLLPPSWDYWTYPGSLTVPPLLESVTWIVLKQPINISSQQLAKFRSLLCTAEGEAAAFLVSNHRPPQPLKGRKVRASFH
Description: Inhibition of human carbonic anhydrase13 preincubated for 15 mins by stopped-flow CO2 hydration assay

As a reminder, the Ki is the equilibrium dissociation constant of an inhibitor or competing ligand from its target. Low readings indicate a stronger hold on the target, high ones a looser hold on the target. As to `CCN[C@H]1CN(CCCOC)S(=O)(=O)c2sc(S(N)(=O)=O)cc21` [BRINZOLAMIDE], the Ki was 11 nM.

The values above are taken from ChEMBL document CHEMBL2440081 (Bioorg Med Chem, 2013).
